Columns and labels:
[1] = tested on: Adult male Sprauge-Dawley rats; test: Extinction of conditioned avoidance response (CAE) in a shuttle box; format: in vivo; conditions: 10 mg/kg and 30 mg/kg i.p. on the 2 days prior to testing and 1 hour before it, extinction tested during 14 days vs saline control
Description: Adult male Sprauge-Dawley rats (Charles River, Wilmington, MA), age 25 weeks and weighing 350-400 g, are separately housed in stainless steel cages with continuous access to food and water, a 12-hour light-dark cycle, and constant room temperature of 22° to 24 C. All testing took place approximately 6 hours into the dark component of the light-dark cycle and was conducted in a dimly lighted soundproof room using a standard shuttle box device ([…] Valley Electronics #146-04), a plexiglass chamber (50 x 20 x 20 cm) divided by a center barrier 7 cm in height. The conditioned stimulus consisted of a 10-second tone provided by a Sonlert mounted in the midpoint of the ceiling of the chamber. Floor current of 0.8 mA was delivered by a constant current shocker-scrambler ([…] Valley Electronics #133-33). The day before the initiation of training each animal was allowed to explore the experimental chamber for 10 minutes without any tone or shock. Training was conducted for 15 days following the day of experimental chamber exploration. Each animal received 20 trials per day on a 30-second variable interval schedule. No drug treatment was administered during the training period. Shock could be avoided by shuttling from one side of the center barrier to the other during the 10-second tone period. […] Animals which consistently remained on the center barrier were removed from the study. Automatic counters recorded the number of avoidance responses, escapes, and intertrial crossings, while a running time meter recorded the total shock duration for each animal. Animals not meeting the admittance criterion of correct avoidance rsponding on at least 85% of the trials for 4 out of the last 5 days of training were removed from the study. A total of 99 rats reaching the admittance criterion were tested for extinction of conditioned avoidance response (CAE) during 14 days. […] All solutions were prepared fresh and administered i.p. ([…]) on the 2 days prior to testing and then 1 hour before it. […] The tone was simply discontinued and the testing proceeded. Two-way analysis of variance of the CAE data yielded an overall significant difference in the rate of shuttle extinction between treatment groups.

[2] = tested on: Male albino (BKW) mice

For `C[C@H](CS)C(=O)N1CCC[C@H]1C(=O)O` [captopril], the “protective effects on memory of previously learned tasks (rate of shuttle extinction)” value (from here on “protective effects on memory”) [1] was “possess protective effects on memory of previously learned tasks”.

`C[C@H](CSC(=O)c1ccccc1)C(=O)N1C[C@@H](Sc2ccccc2)C[C@H]1C(=O)O` [zofenopril] was tested, and the “protective effects on memory” value [1] was “possess protective effects on memory of previously learned tasks”.

`C[C@](N)(Cc1ccc(O)c(O)c1)C(=O)O` [methyldopa] was tested, and the “protective effects on memory” value [1] was “do not have protective effects against loss of memory of previously learned tasks”.

For `COc1ccc([C@@H]2Sc3ccccc3N(CCN(C)C)C(=O)[C@@H]2OC(C)=O)cc1` [diltiazem], the “antagonism of impairment in habituation caused by acute challenge with scopolamine” value ([2]; mice, scopolamine 0.25 mg/kg i.p. acute challenge (days 6 and 10 for diltiazem), arecoline 50 mg/kg/day i.p. infusion, hydergine 0.1 mg/kg p.o. daily, listed as Diltiazem) was “found to antagonize the impairment in habituation performance” and the “protective effects on memory” value [1] was “possess protective effects on memory of previously learned tasks”.

`CN1[C@@H]2C[C@@H](OC(=O)[C@H](CO)c3ccccc3)C[C@H]1[C@@H]1O[C@@H]12` [scopolamine] was tested, and the “influence on habituation of the challenge agent, daily challenge” value ([2]; mouse, in vivo) was “The habituation was impaired throughout the time of scopolamine challenge”, the autonomic disturbance ([2]; mouse, in vivo, ip, 0.25 mg/kg) was “did not cause autonomic disturbance” and the effect on vision ([2]; mouse, in vivo, ip, 0.25 mg/kg) was “lack of effect on vision”.

With `COC(=O)C1=CCCN(C)C1` [arecoline] the “basal learning (speed of habituation)” value ([2]; mouse, in vivo) was “the time course of the basic 'learning' or habituation was unaffected”.

In the case of `C[C@@H](CS)C(=O)N1CCC[C@H]1C(=O)O` [epicaptopril], the “protective effects on memory” value [1] is reported as “do not have protective effects against loss of memory of previously learned tasks”.
